Patent publication US8299048B2, “Hexahydrocyclopentyl[f]indazole sulfonamides and derivatives thereof as selective glucocorticoid receptor modulators” (Merck Sharp & Dohme Corp., priority 2008, dated 2012)

Key:
human GR [1] = biological target: T1, human GR (Homo sapiens, UniProt P04150); experiment: Trans-Activation Modulation of Glucocorticoid Receptor (GRAMMER), MMTV-LUC reporter, agonist mode; assay type: cell-based; parameters: endogenous in cells; conditions: for Emax: A549, A549 cells, maximum activity, read-out: Transactivation A549 Cells GRAMMER Emax; for EC50: A549 cells, inflection point, read-out: Transactivation A549 Cells GRAMMER IP
T1 sequence (P04150 1-777): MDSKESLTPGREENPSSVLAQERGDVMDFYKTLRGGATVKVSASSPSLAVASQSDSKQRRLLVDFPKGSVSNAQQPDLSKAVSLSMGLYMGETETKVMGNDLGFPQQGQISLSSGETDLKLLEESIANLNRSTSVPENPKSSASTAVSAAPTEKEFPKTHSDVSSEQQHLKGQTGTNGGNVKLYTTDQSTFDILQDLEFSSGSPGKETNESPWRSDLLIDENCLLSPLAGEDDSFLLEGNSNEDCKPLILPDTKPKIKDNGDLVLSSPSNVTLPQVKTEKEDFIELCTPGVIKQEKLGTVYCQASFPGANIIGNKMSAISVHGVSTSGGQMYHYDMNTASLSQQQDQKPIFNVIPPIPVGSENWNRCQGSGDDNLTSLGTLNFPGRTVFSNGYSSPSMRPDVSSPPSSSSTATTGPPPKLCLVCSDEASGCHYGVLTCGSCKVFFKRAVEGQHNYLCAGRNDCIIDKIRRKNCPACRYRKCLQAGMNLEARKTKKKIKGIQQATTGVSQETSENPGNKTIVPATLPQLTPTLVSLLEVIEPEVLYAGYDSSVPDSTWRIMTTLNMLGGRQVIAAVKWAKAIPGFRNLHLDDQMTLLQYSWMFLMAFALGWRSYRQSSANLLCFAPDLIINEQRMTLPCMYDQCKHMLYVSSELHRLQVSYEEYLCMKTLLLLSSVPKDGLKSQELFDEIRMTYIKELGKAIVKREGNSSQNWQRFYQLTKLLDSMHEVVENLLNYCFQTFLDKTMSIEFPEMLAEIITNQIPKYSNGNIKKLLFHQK
Outline: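 Readout is luciferase from a modified MMTV LTR promoter after 24 h compound exposure alongside 10 nM dexamethasone (100% activity reference), DMSO ≤1%.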

human GR [2] = biological target: T1, human GR; experiment: Transrepression Assay (GITAR), TNFα-β-lactamase reporter in U937 cells; assay type: cell-based; parameters: U937 cells contain an endogenous glucocorticoid receptor (GR); endogenous in cells; host or cells: U937 cells stably transfected with the TNF-alpha promoter/beta-lactamase reporter; conditions: for GITAR > GRAMM % SEP: GITAR Emax minus GRAMMER Emax; for EC50: U937 cells, inflection point, read-out: Transrepression U937 Cells GITAR IP
Outline: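 First, U937 reporter cells (TNF-α promoter–β-lactamase, native GR) received compound for 30–45 min at 37 °C. Next, PMA (5 ng/ml) and LPS (100 ng/ml) final were added for about 18 hr. Finally, CCF2-AM loading gave the read-out, with 100 nM dexamethasone as 100%.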

[3] = U-937, U937 cells, maximum activity, read-out: Transrepression U937 Cells GITAR Emax
[4] = U-937, activity repressed by 100 nM dexamethasone alone set as 100%, read-out: maximal activity in the transrepression (GITAR) assay

Row | Emax (human GR [1]) | EC50 (human GR [1]) | GITAR > GRAMM % SEP (human GR [2]) | EC50 (human GR [2]) | Emax (human GR [2]; [3]) | Emax (human GR [2]; [4]) | Compound
1 | 76% | 0.421 µM | 7.2% | 0.551 µM | 83.3% | > 5% | CCCS(=O)(=O)N(CCc1ccccn1)C[C@H]1CCC2=Cc3c(cnn3-c3ccc(F)cc3)C[C@@]21C [Example 151, N-{[(4αR,5S)-1-(4-fluorophenyl)-4α-methyl-1,4,4α,5,6,7-hexahydrocyclopenta[f]indazol-5-yl]methyl}-N-(2-pyridin-2-ylethyl)propane-1-sulfonamide]
2 | 2% | 0.0639 µM | 21.0% | 1.03 µM | 23% | > 5% | C[C@]12Cc3cnn(-c4ccc(F)cc4)c3C=C1CC[C@@H]2CN(CCc1ccccn1)S(=O)(=O)CCN1C(=O)c2ccccc2C1=O [Example 152, 2-(1,3-dioxo-1,3-dihydro-2H-isoindol-2-yl)-N-{[(4αR,5S)-1-(4-fluorophenyl)-4α-methyl-1,4,4α,5,6,7-hexahydrocyclopenta[f]indazol-5-yl]methyl}-N-(2-pyridin-2-ylethyl)ethanesulfonamide]
3 | 15.2% | 0.315 µM | 37.2% | 0.263 µM | 52.4% | > 5% | C[C@]12Cc3cnn(-c4ccc(F)cc4)c3C=C1CC[C@@H]2CN(CCc1ccccn1)S(=O)(=O)Cc1ccccc1C(F)(F)F [Example 153, N-{[(4αR,5S)-1-(4-fluorophenyl)-4α-methyl-1,4,4α,5,6,7-hexahydrocyclopenta[f]indazol-5-yl]methyl}-N-(2-pyridin-2-ylethyl)-1-[2-(trifluoromethyl)phenyl]methanesulfonamide]
4 | 17.9% | 0.509 µM | 48.7% | 0.616 µM | 66.5% | > 5% | C[C@]12Cc3cnn(-c4ccc(F)cc4)c3C=C1CC[C@@H]2CN(CC(O)C(F)F)S(=O)(=O)Cc1cccnc1 (stereo partly drawn) [Example 154, N-(3,3-difluoro-2-hydroxypropyl)-N-{[(4αR,5S)-1-(4-fluorophenyl)-4α-methyl-1,4,4α,5,6,7-hexahydrocyclopenta[f]indazol-5-yl]methyl}-1-pyridin-3-ylmethanesulfonamide]
5 | 29% | 0.989 µM | 32.2% | 1.09 µM | 61.3% | > 5% | CCCS(=O)(=O)N(CC(O)C(F)F)C[C@H]1CCC2=Cc3c(cnn3-c3ccc(F)cc3)C[C@@]21C (stereo partly drawn) [Example 155, N-(3,3-difluoro-2-hydroxypropyl)-N-{[(4αR,5S)-1-(4-fluorophenyl)-4α-methyl-1,4,4α,5,6,7-hexahydrocyclopenta[f]indazol-5-yl]methyl}propane-1-sulfonamide]
6 | 4.5% | 0.193 µM | 15.0% | 0.229 µM | 19.5% | > 5% | Cn1cc(S(=O)(=O)N(CC(O)C(F)F)C[C@H]2CCC3=Cc4c(cnn4-c4ccc(F)cc4)C[C@@]32C)c(C(F)(F)F)n1 (stereo partly drawn) [Example 156, N-(3,3-difluoro-2-hydroxypropyl)-N-{[(4αR,5S)-1-(4-fluorophenyl)-4α-methyl-1,4,4α,5,6,7-hexahydrocyclopenta[f]indazol-5-yl]methyl}-1-methyl-3-(trifluoromethyl)-1H-pyrazole-4-sulfonamide]
7 | 63.6% | 0.124 µM | 30.0% | 0.0291 µM | 93.6% | > 5% | Cn1cc(S(=O)(=O)N(CC(O)c2ccccn2)C[C@H]2CCC3=Cc4c(cnn4-c4ccc(F)cc4)C[C@@]32C)c(C(F)(F)F)n1 (stereo partly drawn) [Example 157, N-{[(4αR,5S)-1-(4-fluorophenyl)-4α-methyl-1,4,4α,5,6,7-hexahydrocyclopenta[f]indazol-5-yl]methyl}-N-(2-hydroxy-2-pyridin-2-ylethyl)-1-methyl-3-(trifluoromethyl)-1H-pyrazole-4-sulfonamide]
8 | 36.2% | 0.747 µM | 41.6% | 0.564 µM | 77.8% | > 5% | C[C@]12Cc3cnn(-c4ccc(F)cc4)c3C=C1CC[C@@H]2CN(CC=O)S(=O)(=O)c1ccccc1F [Example 158, 2-fluoro-N-{[(4αR,5S)-1-(4-fluorophenyl)-4α-methyl-1,4,4α,5,6,7-hexahydrocyclopenta[f]indazol-5-yl]methyl}-N-(2-oxoethyl)benzenesulfonamide]
9 | 28.9% | 0.367 µM | 5.2% | 0.551 µM | 34.1% | > 5% | COC(=O)c1ccccc1CCN(C[C@H]1CCC2=Cc3c(cnn3-c3ccc(F)cc3)C[C@@]21C)S(=O)(=O)CC(F)(F)F [Example 159, methyl 2-(2-{{[(4αR,5S)-1-(4-fluorophenyl)-4α-methyl-1,4,4α,5,6,7-hexahydrocyclopenta[f]indazol-5-yl]methyl}[(2,2,2-trifluoroethyl)sulfonyl]amino}ethyl)benzoate]
10 | 4.3% | 0.547 µM | 10.8% | 0.508 µM | 15.1% | > 5% | COC(=O)c1cc(Cl)ccc1CCN(C[C@H]1CCC2=Cc3c(cnn3-c3ccc(F)cc3)C[C@@]21C)S(=O)(=O)CC(F)(F)F [Example 160, methyl 5-chloro-2-(2-{{[(4αR,5S)-1-(4-fluorophenyl)-4α-methyl-1,4,4α,5,6,7-hexahydrocyclopenta[f]indazol-5-yl]methyl}[(2,2,2-trifluoroethyl)sulfonyl]amino}ethyl)benzoate]
11 | 18.3% | 0.419 µM | 26.7% | 0.93 µM | 45% | > 5% | Cc1noc(C)c1S(=O)(=O)NC[C@H]1CCC2=Cc3c(cnn3-c3ccc(F)cc3)C[C@@]21C [Example 161, N-{[(4αR,5S)-1-(4-fluorophenyl)-4α-methyl-1,4,4α,5,6,7-hexahydrocyclopenta[f]indazol-5-yl]methyl}-3,5-dimethylisoxazole-4-sulfonamide]
12 | 87.1% | 0.323 µM | 3.7% | 0.202 µM | 90.8% | > 5% | COC(=O)c1ccccc1CS(=O)(=O)N(CC(O)C(F)(F)F)C[C@H]1CCC2=Cc3c(cnn3-c3ccc(F)cc3)C[C@@]21C (stereo partly drawn) [Example 162, methyl 2-({[{[(4αR,5S)-1-(4-fluorophenyl)-4α-methyl-1,4,4α,5,6,7-hexahydrocyclopenta[f]indazol-5-yl]methyl}(3,3,3-trifluoro-2-hydroxypropyl)amino]sulfonyl}methyl)benzoate]
13 | 48.4% | 0.241 µM | 38.6% | 0.342 µM | 86.9% | > 5% | C[C@]12Cc3cnn(-c4ccc(F)cc4)c3C=C1CC[C@@H]2CN(CCc1ccccc1CO)S(=O)(=O)CC(F)(F)F [Example 163, 2,2,2-trifluoro-N-{[(4αR,5S)-1-(4-fluorophenyl)-4α-methyl-1,4,4α,5,6,7-hexahydrocyclopenta[f]indazol-5-yl]methyl}-N-{2-[2-(hydroxymethyl)phenyl]ethyl}ethanesulfonamide]
14 | 58.3% | 1.08 µM | 23.0% | 1.25 µM | 81.3% | > 5% | C[C@]12Cc3cnn(-c4ccc(F)cc4)c3C=C1CC[C@@H]2CN(CC(O)C(F)(F)F)S(=O)(=O)Cc1ccccc1C(=O)O (stereo partly drawn) [Example 164, 2-({[{[(4αR,5S)-1-(4-fluorophenyl)-4α-methyl-1,4,4α,5,6,7-hexahydrocyclopenta[f]indazol-5-yl]methyl}(3,3,3-trifluoro-2-hydroxypropyl)amino]sulfonyl}methyl)benzoic acid]
